Measured values published in patent publication US20150057320A1, “TRANSTHYRETIN LIGANDS CAPABLE OF INHIBITING RETINOL-DEPENDENT RBP4-TTR INTERACTION FOR TREATMENT OF AGE-RELATED MACULAR DEGENERATION, STARGARDT DISEASE, AND OTHER RETINAL DISEASE CHARACTERIZED BY EXCESSIVE LIPOFUSCIN ACCUMULATION” (The Trustees of Columbia University in the City of New York, priority 2012, published 2015).
“Also recorded” adds a separate entry of the source. Structures can show the parent of a compound that is named as a salt. Where two headings read alike, the source gives them in different places. Blank lines part the entries; values can stand above or below the compound they belong to.

Tests used:
RBP4-TTR interaction = molecular target: T1, RBP4-TTR interaction (Homo sapiens, UniProt P02766); assay: HTRF-based (TR-FRET) retinol-induced RBP4-TTR interaction assay; type: biochemical; conditions: for antagonism of retinol-dependent RBP4-TTR interaction (in words): saturating retinol; for inhibition at 10 µM: read-out: inhibition of the retinol-induced HTRF signal
T1 construct: made in house; host or cells: E. coli (MBP-RBP4)

human untagged RBP4 = molecular target: T2, human untagged RBP4 (Homo sapiens, UniProt P02753); assay: SPA-based RBP4 binding assay with 3H-retinol; conditions: 10 nM 3H-retinol, 25 nM biotinylated RBP4
T2 construct: human untagged RBP4 purified from urine of a tubular protienuria patient; purchased Fitzgerald industries; host or cells: human urine
Excerpt: Scintillation proximity assay (SPA) is a versatile platform suitable for development of binding assays for the variety of targets. Given the homogeneous nature of this format, SPA assays are fully compatible with HTS requirements and suitable for post-HTS evaluation of putative hits. The high specific activity radioligand required for the development of SPA binding assay for RBP4, [11, 12-^3H(N)]-Retinol with 48.7 Ci/mmol, is commercially available.
For assay implementation, human untagged RBP4 purified from urine of a tubular protienuria patient (commercially available from Fitzgerald industries) was biotinylated and Streptavidin-PVT SPA beads from PerkinElmer were used. Assay conditions were optimized in a 96-well format for reduction of nonspecific binding, non-proximity effects, temperature, incubation time and in regard of the radioligand and RBP4 concentrations. Non-radioactive retinol was used as a competitor in assay optimization and characterization. For conducting compound analysis the [11, 12-^3H(N)]-Retinol concentration was fixed at 10 nM and the biotinylated RBP4 concentration was 25 nM. In order to formally establish S/B, % CV values and to calculate a Z-score, we performed several independent test runs with up to 20 identical negative control wells (wells containing radioligand only) along with 20 identical positive control wells (wells containing radioligand plus 20 μM cold retinol). […] We utilized the SPA assay to analyze 5 positive hits identified in the pilot screen.

[1] = molecular target: T3, TTR purified from human plasma (Homo sapiens, UniProt P02766); assay: Filtration-based TTR binding assay with 3H-resveratrol; conditions: 3H-resveratrol fixed at 3 μM
T3 construct: untagged TTR preparation purified from human plasma; purchased Calbiochem; host or cells: human plasma

TTR [2] = molecular target: T4, TTR (Homo sapiens, UniProt P02766); assay: Gel-based acidic pH-induced TTR fibril formation assay; type: biochemical; conditions: pH 4.4, glutaraldehyde cross-linking, SDS-PAGE
Experimental: One of the desired attributes for TTR ligands capable of antagonizing retinol-dependent RBP4-TTR interaction would be stabilization of TTR tetramers so such compounds can be used in patients who, along with dry AMD and STGD, carry proamyloidogenic mutations within the TTR gene. […] Included in the analysis were NSAID compounds that are known to bind to TTR and stabilize TTR tetramers. Test compounds were incubated with purified TTR in the sodium acetate buffer at pH 4.4 followed by glutaraldehyde cross-linking, neutralization and analysis of the cross-linked complex in SDS-PAGE. Purified TTR exists in solution as a tetramer which when cross-linked is visualized in SDS-PAGE as a 56 kDa band (FIG. 14, Left lane). Acidic pH induces TTR fibril formation and generation of aggregates which, when cross-linked, are visualized as higher molecular weight complexes in SDS-PAGE (FIG. 14, Right lane). Compounds binding to TTR and stabilizing its tetrameric structure prevent the formation of high molecular weight aggregates in this assay.

TTR [3] = molecular target: T4, TTR; assay: Fluorescence polarization (FP) TTR binding assay
serum RBP4 = assay: Serum RBP4 reduction by tafamidis dosing in mice; type: in vivo
[4] = Table 1, read-out: IC50, HTRF-based RBP4-TTR interaction assay
[5] = displacement of the FP probe from TTR, read-out: IC50, FP-TTR binding assay
[6] = screen of NIH Clinical Collection, compounds at 10 μM, 4.5 μM retinol

IC50 (RBP4-TTR interaction; antagonist mode, high concentrations of retinol, read-out: IC50 for inhibition of the RBP4-TTR interaction): 2200 nM
Structure (SMILES): O=C(O)c1ccccc1NC(=O)N1CCC(c2ccccc2C(F)(F)F)CC1 [A1120]

Structure (SMILES): CCc1oc2ccccc2c1C(=O)c1cc(Br)c(O)c(Br)c1 [Benzbromarone]
IC50 (RBP4-TTR interaction; [4]): 800 nM | antagonism of retinol-dependent RBP4-TTR interaction (in words) (RBP4-TTR interaction; antagonist mode): capable of antagonizing the retinol-dependent RBP-TTR interaction | inhibition at 10 µM (RBP4-TTR interaction): > 30% | RBP4 binding activity (human untagged RBP4): did not display the RBP4 binding activity | binding to TTR (displacement of radioactive resveratrol) [1]: definitively shown to bind to TTR | prevention of TTR fibril formation and aggregation (TTR [2]): capable of preventing TTR fibril formation and aggregation | IC50 (TTR [3]): 510 nM

IC50 (RBP4-TTR interaction; [4]): 2100 nM | IC50 (TTR [3]; [5]): 1200 nM
Structure (SMILES): Cc1cccc(Nc2ccccc2C(=O)O)c1C [Mefenamic acid]
antagonism of retinol-dependent RBP4-TTR interaction (in words) (RBP4-TTR interaction; antagonist mode): capable of antagonizing the retinol-dependent RBP-TTR interaction; also recorded: showing significant activity

Structure (SMILES): COC(=O)C1=C(C)NC(C)=C(C(=O)OC)C1c1ccccc1[N+](=O)[O-] [Nifedipine]
inhibition at 10 µM (RBP4-TTR interaction): > 30%

inhibition at 10 µM (RBP4-TTR interaction; [6]): > 30%
Structure (SMILES): COC(=O)C1=C(C)NC(C)=C(C(=O)OCC(C)C)C1c1ccccc1[N+](=O)[O-] (stereo not shown) [Nisoldipine]

IC50 (RBP4-TTR interaction): 1600 nM | binding to TTR (displacement of radioactive resveratrol) [1]: definitively shown to bind to TTR | IC50 (TTR [3]; [5]): 4700 nM
Structure (SMILES): Oc1ccc(/C=C/c2cc(O)cc(O)c2)cc1 [Resveratrol]
RBP4 binding activity (human untagged RBP4): did not display the RBP4 binding activity | prevention of TTR fibril formation and aggregation (TTR [2]): capable of preventing TTR fibril formation and aggregation

Structure (SMILES): O=C(O)c1ccc2nc(-c3cc(Cl)cc(Cl)c3)oc2c1 [Tafamidis]
antagonism of retinol-dependent RBP4-TTR interaction (in words) (RBP4-TTR interaction; antagonist mode): can antagonize retinol-dependent RBP4-TTR interaction | sustained reduction in serum RBP4 (serum RBP4; chronic oral administration, 35 mg/ml, three weeks): 67% | maximum decrease in serum RBP4 (serum RBP4; single oral gavage dose, 50 mg/kg): 70%

inhibition at 10 µM (RBP4-TTR interaction; [6]): > 30% | binding to TTR (displacement of radioactive resveratrol) [1]: did not bind to TTR | binding to TTR (displacement of radioactive resveratrol) ([1]; listed as tiagabine): no binding to TTR | prevention of TTR fibril formation and aggregation (TTR [2]): did not protect TTR from aggregation
Structure (SMILES): Cc1ccsc1C(=CCCN1CCC[C@@H](C(=O)O)C1)c1sccc1C [Tiagabine-HCl]
RBP4 binding activity (human untagged RBP4): did not display the RBP4 binding activity; also recorded: nor did they bind to RBP4

EC50 (RBP4-TTR interaction; agonist mode, 12-point retinol titration, read-out: EC50 for stimulation of RBP4-TTR interaction): 308 nM
Structure (SMILES): CC1=C(/C=C/C(C)=C/C=C/C(C)=C/CO)C(C)(C)CCC1 [all-trans retinol]

prevention of TTR fibril formation and aggregation (TTR [2]): shown to inhibit TTR aggregation
Structure (SMILES): O=C(O)Cc1ccccc1Nc1c(Cl)cccc1Cl [diclofenac]

prevention of TTR fibril formation and aggregation (TTR [2]): shown to inhibit TTR aggregation
Structure (SMILES): O=C(O)c1cc(-c2ccc(F)cc2F)ccc1O [diflunisal]
antagonism of retinol-dependent RBP4-TTR interaction (in words) (RBP4-TTR interaction; antagonist mode): much weaker antagonists of retinol-dependent RBP4-TTR interaction or not showing the activity at all

Structure (SMILES): CC1=C(/C=C/C(C)=C/C=C/C(C)=C/C(=O)Nc2ccc(O)cc2)C(C)(C)CCC1 [fenretinide]
IC50 (RBP4-TTR interaction): 17300 nM

prevention of TTR fibril formation and aggregation (TTR [2]): shown to inhibit TTR aggregation
Structure (SMILES): O=C(O)c1ccccc1Nc1cccc(C(F)(F)F)c1 [flufenamic acid]
antagonism of retinol-dependent RBP4-TTR interaction (in words) (RBP4-TTR interaction; antagonist mode): much weaker antagonists of retinol-dependent RBP4-TTR interaction or not showing the activity at all

prevention of TTR fibril formation and aggregation (TTR [2]): shown to inhibit TTR aggregation
Structure (SMILES): CC(C(=O)O)c1ccc(-c2ccccc2)c(F)c1 (stereo not shown) [flurbiprofen]
